Measured values taken from PubChem BioAssay AID248 (DTP/NCI, 2004).
Values joined by “and” are separate entries in the source; they are usually repeats but may differ in a detail not shown here. Equal entries are not always repeated. Toxic doses and inconclusive results are not listed. Cut-off read from the data, not from the text of the source: active = T/C of 150% or more; inactive = T/C below 125%.

Tested on: L1210 leukemia ip in BDF1 mice, survival T/C
Assay: NCI In Vivo Anticancer Drug Screen. Data for tumor model L1210 Leukemia (intraperitoneal) in B6D2F1 (BDF1) mice
Settings: endpoint: mean survival time, higher = longer survival
Outline: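 Mice bearing the transplanted tumor received compound or vehicle. Survival of the treated group was divided by that of the vehicle-treated control group to give the ratio.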

[1] = dose: 100.0 mg/kg/injection, schedule: Q04DX002 (ip), vehicle: Klucel (hydroxypropylcellulose) (HPC)
[2] = dose: 200.0 mg/kg/injection, schedule: Q04DX002 (ip), vehicle: Klucel (hydroxypropylcellulose) (HPC)
[3] = dose: 100.0 mg/kg/injection, schedule: Q04DX003 (ip), vehicle: Klucel (hydroxypropylcellulose) (HPC)
[4] = dose: 200.0 mg/kg/injection, schedule: Q04DX003 (ip), vehicle: Klucel (hydroxypropylcellulose) (HPC)
[5] = dose: 100.0 mg/kg/injection, schedule: Q01DX001 (ip), vehicle: saline
[6] = dose: 50.0 mg/kg/injection, schedule: Q01DX001 (ip), vehicle: saline
[7] = dose: 75.0 mg/kg/injection, schedule: Q01DX001 (ip), vehicle: saline
[8] = dose: 75.0 mg/kg/injection, schedule: Q04DX003 (ip), vehicle: saline
[9] = dose: 150.0 mg/kg/injection, schedule: Q01DX001 (ip), vehicle: saline
[10] = dose: 150.0 mg/kg/injection, schedule: Q04DX003 (ip), vehicle: saline

Measured: T/C

CN(C)O
inactive: dose: 100.0 mg/kg/injection, schedule: Q01DX009 (ip), vehicle: saline with Tween-80 103 % of control | dose: 200.0 mg/kg/injection, schedule: Q01DX009 (ip), vehicle: saline with Tween-80 105 % of control | dose: 222.0 mg/kg/injection, schedule: Q01DX Z (ip), vehicle: saline 100 % of control | dose: 333.0 mg/kg/injection, schedule: Q01DX Z (ip), vehicle: saline 97 % of control | dose: 400.0 mg/kg/injection, schedule: Q01DX009 (ip), vehicle: saline with Tween-80 108 % of control | dose: 500.0 mg/kg/injection, schedule: Q01DX Z (ip), vehicle: saline 106 % of control

[O-][N+](=Nc1ccc(Cl)cc1)c1ccc(Cl)cc1
inactive: dose: 100.0 mg/kg/injection, schedule: Q01DX001 (ip), vehicle: gum acacia 92 % of control | dose: 100.0 mg/kg/injection, schedule: Q04DX003 (ip), vehicle: gum acacia 97 % of control | dose: 200.0 mg/kg/injection, schedule: Q01DX001 (ip), vehicle: gum acacia 93 % of control | dose: 200.0 mg/kg/injection, schedule: Q04DX003 (ip), vehicle: gum acacia 87 % of control | dose: 400.0 mg/kg/injection, schedule: Q01DX001 (ip), vehicle: gum acacia 92 % of control | dose: 400.0 mg/kg/injection, schedule: Q04DX003 (ip), vehicle: gum acacia 91 % of control

Cn1nccc2c(=O)n(C)c(=O)nc1-2
inactive: [1] 97 % of control | [2] 95 % of control

CCc1ccc(NC(=O)Nc2cccc(Cl)c2)cc1
inactive: dose: 100.0 mg/kg/injection, schedule: Q01DX009 (ip), vehicle: Klucel (hydroxypropylcellulose) (HPC) 92 % of control | [3] 102 % of control | dose: 200.0 mg/kg/injection, schedule: Q01DX009 (ip), vehicle: Klucel (hydroxypropylcellulose) (HPC) 89 % of control | [4] 102 % of control | dose: 400.0 mg/kg/injection, schedule: Q01DX009 (ip), vehicle: Klucel (hydroxypropylcellulose) (HPC) 99 % of control | dose: 400.0 mg/kg/injection, schedule: Q04DX003 (ip), vehicle: Klucel (hydroxypropylcellulose) (HPC) 98 % of control

N#C/C=C/C1CCCCC1
inactive: dose: 25.0 mg/kg/injection, schedule: Q04DX003 (ip), vehicle: saline 109 % of control | dose: 50.0 mg/kg/injection, schedule: Q04DX003 (ip), vehicle: saline 107 % of control | [5] 95 % of control | dose: 100.0 mg/kg/injection, schedule: Q04DX003 (ip), vehicle: saline 105 % of control

CC12CCC(OC3OC(CO)C(OC4OC(CO)C(O)C(O)C4O)C(O)C3O)CC1CCC1C2CCC2(C)C(C3=CC(=O)OC3)CCC12O (stereo not drawn)
inactive: dose: 10.0 mg/kg/injection, schedule: Q01DX009 (ip), vehicle: saline 102 % of control | dose: 20.0 mg/kg/injection, schedule: Q01DX009 (ip), vehicle: saline 116 % of control | dose: 40.0 mg/kg/injection, schedule: Q01DX009 (ip), vehicle: saline 102 % of control

O=C(NCCCl)Nc1ncccn1
inactive: dose: 100.0 mg/kg/injection, schedule: Q01DX001 (ip), vehicle: carboxymethylcellulose (CMC) 97 % of control | dose: 200.0 mg/kg/injection, schedule: Q01DX001 (ip), vehicle: carboxymethylcellulose (CMC) 106 % of control | dose: 400.0 mg/kg/injection, schedule: Q01DX001 (ip), vehicle: carboxymethylcellulose (CMC) 103 % of control

O=CNc1cc2c3c(c1)CCCN3CCC2
inactive: dose: 12.5 mg/kg/injection, schedule: Q01DX001 (ip), vehicle: saline 102 % of control | dose: 25.0 mg/kg/injection, schedule: Q01DX001 (ip), vehicle: saline 108 % of control | dose: 25.0 mg/kg/injection, schedule: Q01DX009 (ip), vehicle: saline 105 % of control | [6] 107 % of control | dose: 50.0 mg/kg/injection, schedule: Q01DX009 (ip), vehicle: saline 106 % of control | [5] 100 % of control

CS(=O)(=O)c1nnc(-c2ccc(Cl)c(Cl)c2)s1
inactive: [7] 101 % of control | [8] 110 % of control | [9] 100 % of control | [10] 95 % of control | dose: 300.0 mg/kg/injection, schedule: Q01DX001 (ip), vehicle: saline 110 % of control

O=c1c(Cl)c(C(Cl)(Cl)Cl)c2ccccc2n1O
inactive: [3] 101 % of control | [4] 86 % of control

CC/C(=C\c1ccc2ccccc2c1)[N+](=O)[O-]
inactive: [7] 97 % of control | [9] 103 % of control

O=C(NC(CO)C(O)c1ccc([N+](=O)[O-])cc1)C(Cl)Cl (stereo not drawn)
inactive: dose: 100.0 mg/kg/injection, schedule: Q04DX003 (ip), vehicle: saline with Tween-80 102 % of control | dose: 200.0 mg/kg/injection, schedule: Q04DX003 (ip), vehicle: saline with Tween-80 101 % of control | dose: 400.0 mg/kg/injection, schedule: Q04DX003 (ip), vehicle: saline with Tween-80 106 % of control

CC(=O)c1ccc(NC(=S)Nc2ccc(C(C)=O)cc2)cc1
inactive: dose: 5.0 mg/kg/injection, schedule: Q01DX009 (ip), vehicle: saline with Tween-80 87 % of control | dose: 10.0 mg/kg/injection, schedule: Q01DX009 (ip), vehicle: saline with Tween-80 103 % of control | dose: 20.0 mg/kg/injection, schedule: Q01DX009 (ip), vehicle: saline with Tween-80 98 % of control and 115 % of control | dose: 40.0 mg/kg/injection, schedule: Q01DX009 (ip), vehicle: saline with Tween-80 97 % of control and 102 % of control | dose: 80.0 mg/kg/injection, schedule: Q01DX009 (ip), vehicle: saline with Tween-80 86 % of control | dose: 84.0 mg/kg/injection, schedule: Q01DX009 (ip), vehicle: saline with Tween-80 98 % of control | dose: 320.0 mg/kg/injection, schedule: Q01DX009 (ip), vehicle: saline with Tween-80 102 % of control

C1CCC(CCCC(CCCC2CCCC2)CCCC2CCCC2)C1
inactive: dose: 100.0 mg/kg/injection, schedule: Q01DX001 (ip), vehicle: saline with Tween-80 93 % of control | dose: 200.0 mg/kg/injection, schedule: Q01DX001 (ip), vehicle: saline with Tween-80 93 % of control | dose: 400.0 mg/kg/injection, schedule: Q01DX001 (ip), vehicle: saline with Tween-80 89 % of control

O=[N+]([O-])c1cccc(-c2cc(-c3cccs3)cc(-c3ccccc3)n2)c1
inactive: dose: 100.0 mg/kg/injection, schedule: Q04DX002 (ip), vehicle: gum acacia 93 % of control | dose: 200.0 mg/kg/injection, schedule: Q04DX002 (ip), vehicle: gum acacia 93 % of control | dose: 400.0 mg/kg/injection, schedule: Q04DX002 (ip), vehicle: gum acacia 93 % of control

CCc1cccc(CC)c1NC(=O)c1ccccc1Cl
inactive: [1] 102 % of control | [2] 97 % of control | dose: 400.0 mg/kg/injection, schedule: Q04DX002 (ip), vehicle: Klucel (hydroxypropylcellulose) (HPC) 94 % of control

FC(F)(F)c1ccc(-c2ccc(OCCN3CCCC3)cc2)cc1
inactive: dose: 4.68 mg/kg/injection, schedule: Q01DX009 (ip), vehicle: saline 97 % of control | dose: 9.37 mg/kg/injection, schedule: Q01DX009 (ip), vehicle: saline 92 % of control | dose: 18.75 mg/kg/injection, schedule: Q01DX009 (ip), vehicle: saline 94 % of control and 89 % of control | dose: 37.5 mg/kg/injection, schedule: Q01DX009 (ip), vehicle: saline 90 % of control | dose: 37.5 mg/kg/injection, schedule: Q04DX003 (ip), vehicle: saline 93 % of control | [8] 102 % of control | [10] 87 % of control

CC(C)(C)S(=O)(=O)CCCCS(=O)(=O)C(C)(C)C
inactive: [5] 102 % of control | dose: 100.0 mg/kg/injection, schedule: Q01DX009 (ip), vehicle: saline 104 % of control | dose: 100.0 mg/kg/injection, schedule: Q04DX003 (ip), vehicle: acetone 100 % of control | dose: 200.0 mg/kg/injection, schedule: Q01DX001 (ip), vehicle: saline 94 % of control | dose: 200.0 mg/kg/injection, schedule: Q01DX009 (ip), vehicle: saline 96 % of control | dose: 200.0 mg/kg/injection, schedule: Q04DX003 (ip), vehicle: acetone 96 % of control | dose: 400.0 mg/kg/injection, schedule: Q01DX001 (ip), vehicle: saline 88 % of control | dose: 400.0 mg/kg/injection, schedule: Q01DX009 (ip), vehicle: saline 105 % of control | dose: 400.0 mg/kg/injection, schedule: Q04DX003 (ip), vehicle: acetone 89 % of control

Nc1ccc2cc3ccc(N)cc3nc2c1
inactive: [6] 120 % of control

CC1(c2ccc3ccccc3c2)OC(=O)c2ccccc21 (stereo not drawn)
inactive: dose: 25.0 mg/kg/injection, schedule: Q01DX009 (ip), vehicle: saline with Tween-80 106 % of control | dose: 50.0 mg/kg/injection, schedule: Q01DX009 (ip), vehicle: saline with Tween-80 91 % of control
